Assay [1] has as its system breast cancer cell line MX-1. The assay is described as follows: MX-1 cell line proliferation assay (3-day, Cell Titer Glo). Format: cell-based. Conditions: 72 hours, read-out: Cellular proliferation: EC50. An outline of the steps:
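MX-1 cells plated at 5000 cells/well and adhered overnight at 37°, then treated for 3 days with 10-point 3-fold dilutions (final top 3 or 1 μM). Viability by Cell Titer Glo luminescence normalized to DMSO-treated cells; EC50 from sigmoidal curve fit.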
A general note: ATP-based viability assays read luminescence as a measure of living cells.

The next assay concerns the target BRD4 (BDI-BDII_K57-K550) (Homo sapiens, UniProt O60885). In words: TR-FRET bromodomain binding assay. Conditions: His-tagged tandem bromodomain, Alexa647-labeled probe; Ki calculated from IC50s, probe Kd and probe concentration.
Assay [2] relates to LPS induced IL-6 (Interleukin-6) production. In words: LPS (lipopolysaccharide) induced IL-6 production mouse assay. The following applies: oral administration one hour before LPS 2.5 mg/kg i.p., serum IL-6 2 hours after LPS, p < 0.05.
Procedure: Compounds of the Examples listed in Table 2 were assayed for their ability to inhibit LPS (lipopolysaccharide) induced IL-6 (Interleukin-6) production in mice. Fox Chase SCID® female mice (Charles Rivers Labs, 8 per group) or CD1 female mice received an intraperitoneal challenge of lipopolysaccharide (2.5 mg/kg, L2630 E. coli 0111:B4) one hour after oral administration of compounds. Mice were euthanized 2 hours after lipopolysaccharide injection, blood was removed by cardiac puncture, and then the serum harvested from the blood samples was frozen at −80° C. On the day of the assay the serum samples were brought to room temperature and then diluted 1:20 in phosphate-buffered saline containing 2% bovine serum albumin. Interleukin-6 measurements were performed using a cytokine assay from Meso Scale Discovery (Gaithersburg, Md.) for mouse serum analysis according to the manufacturer's protocol and read on a SECTOR Imager 6000 (Meso Scale Discovery, Gaithersburg, Md.) instrument. Statistical analysis was performed using Prism software (version 5.0) incorporating Dunnett's one way ANOVA. The IL-6 mean and standard deviation of the group of vehicle treated animals were compared with the IL-6 mean and standard deviation of the group treated with drug.

A word on the Ki: it is a measure of affinity in units of concentration, obtained from inhibition or displacement.

Read-outs that look alike come from different tables or passages of the source.

Consider “17-(ethylsulfonyl)-11-fluoro-2-methyl-6,7,8,9-tetrahydrodibenzo[4,5:7,8][1,6]dioxacyclododecino[3,2-c]pyridin-3(2H)-one [Example A-22]”, for which the EC50 in assay [1] (MX-1 cells) worked out at 9 nM. In addition, at BRD4 (BDI-BDII_K57-K550), the Ki was 1.51 nM. Also, the “Inhibition of LPS induced IL-6 production, % inhibition” value (from here on “Inhibition … % inhibition”) in assay [2] (CD1 mouse strain) is given as 83%.
`CCS(=O)(=O)c1ccc2c(c1)-c1cn(C)c(=O)cc1OCCCc1cc(Cl)ccc1O2` [Example A-3, 10-chloro-16-(ethylsulfonyl)-2-methyl-7,8-dihydro-2H-dibenzo[4,5:7,8][1,6]dioxacycloundecino[3,2-c]pyridin-3(6H)-one]: the EC50 in assay [1] (Homo sapiens, MX1, MX-1 cells) was 31.1 nM. Moreover, the Ki at BRD4 (BDI-BDII_K57-K550) is 7.54 nM. In assay [2] (SCID mouse strain), the “Inhibition … % inhibition” value was determined as 78%.
In the case of `CCS(=O)(=O)Nc1ccc2c(c1)-c1cn(C)c(=O)cc1OCCCc1cc(Cl)ccc1O2` [Example A-5, N-(10-chloro-2-methyl-3-oxo-3,6,7,8-tetrahydro-2H-dibenzo[4,5:7,8][1,6]dioxacycloundecino[3,2-c]pyridin-16-yl)ethanesulfonamide], the EC50 in assay [1] (Homo sapiens, MX1, MX-1 cells) is 12.8 nM. For the same compound, the Ki on BRD4 (BDI-BDII_K57-K550) was 1.3 nM. In addition, in assay [2] (SCID mouse strain), the “Inhibition … % inhibition” value is 73%.
Turning to `CCS(=O)(=O)Nc1ccc2c(c1)-c1cn(C)c(=O)cc1OCCCc1cc(F)cc(F)c1O2` [Example A-6, N-(10,12-difluoro-2-methyl-3-oxo-3,6,7,8-tetrahydro-2H-dibenzo[4,5:7,8][1,6]dioxacycloundecino[3,2-c]pyridin-16-yl)ethanesulfonamide], in assay [1] (Homo sapiens, MX1, MX-1 cells), the EC50 was determined as 9.6 nM. At BRD4 (BDI-BDII_K57-K550), the Ki was 1.51 nM. Besides, the “Inhibition … % inhibition” value in assay [2] (CD1 mouse strain) worked out at 86%.
Turning to `CCS(=O)(=O)Nc1ccc2c(c1)-c1cn(C)c(=O)cc1OCCCCc1cc(Cl)ccc1O2` [Example A-9, N-(11-chloro-2-methyl-3-oxo-2,3,6,7,8,9-hexahydrodibenzo[4,5:7,8][1,6]dioxacyclododecino[3,2-c]pyridin-17-yl)ethanesulfonamide], in assay [1] (Homo sapiens, MX1, MX-1 cells), the EC50 was found to be 5.69 nM. The Ki on BRD4 (BDI-BDII_K57-K550) was 0.93 nM. In assay [2] (CD1 mouse strain), the “Inhibition … % inhibition” value is given as 83%.
On to `Cn1cc2c(cc1=O)OCCCc1cc(Cl)ccc1Oc1ccc(NS(C)(=O)=O)cc1-2` [Example A-12, N-(10-chloro-2-methyl-3-oxo-3,6,7,8-tetrahydro-2H-dibenzo[4,5:7,8][1,6]dioxacycloundecino[3,2-c]pyridin-16-yl)methanesulfonamide], for which the EC50 in assay [1] (Homo sapiens, MX1, MX-1 cells) was found to be 19.1 nM. Besides, the Ki on BRD4 (BDI-BDII_K57-K550) is 2.16 nM. For the same compound, the “Inhibition … % inhibition” value in assay [2] (CD1 mouse strain) is 47%.
In the case of `CCS(=O)(=O)c1ccc2c(c1)-c1cn(C)c(=O)cc1OCCCCc1cc(Cl)ccc1O2` [Example A-13, 11-chloro-17-(ethylsulfonyl)-2-methyl-6,7,8,9-tetrahydrodibenzo[4,5:7,8][1,6]dioxacyclododecino[3,2-c]pyridin-3(2H)-one], in assay [1] (Homo sapiens, MX1, MX-1 cells), the EC50 turned out to be 13.6 nM. Also, the Ki on BRD4 (BDI-BDII_K57-K550) was 0.99 nM. Besides, in assay [2] (CD1 mouse strain), the “Inhibition … % inhibition” value stood at 82%.
In the case of `CCS(=O)(=O)Nc1ccc2c(c1)-c1cn(C)c(=O)cc1OCCCCc1cc(F)cc(F)c1O2` [Example A-14, N-(11,13-difluoro-2-methyl-3-oxo-2,3,6,7,8,9-hexahydrodibenzo[4,5:7,8][1,6]dioxacyclododecino[3,2-c]pyridin-17-yl)ethanesulfonamide], in assay [2] (CD1 mouse strain), the “Inhibition … % inhibition” value is 77%.
Regarding `CCS(=O)(=O)c1ccc2c(c1)-c1cn(C)c(=O)cc1OCCCCc1cc(F)cc(F)c1O2` [Example A-20, 17-(ethylsulfonyl)-11,13-difluoro-2-methyl-6,7,8,9-tetrahydrodibenzo[4,5:7,8][1,6]dioxacyclododecino[3,2-c]pyridin-3(2H)-one], in assay [1] (Homo sapiens, MX1, MX-1 cells), the EC50 was 8.69 nM. The Ki on BRD4 (BDI-BDII_K57-K550) was 1.25 nM. Besides, in assay [2] (CD1 mouse strain), the “Inhibition … % inhibition” value was found to be 81%.
